Results published in patent US20250269039A1, “THERAPEUTIC-OLIGONUCLEOTIDES ACTIVATED BY NUCLEASES” (priority 2020, published 2025).

Legend:
[1] = test system: S. aureus ATCC 1707 (MRSA); test: Broth microdilution MIC and growth inhibition; format: cell-based, Staphylococcus aureus
Description: (§1) Bacteria strains. S. aureus NCTC 12493 (MRSA), S. aureus ATCC 29213 (MSSA), S. aureus ATCC 43300 (MRSA), S. aureus ATCC 1707 (MRSA), S. aureus ATCC 1717 (MRSA), S. aureus ATCC 1747 (MRSA), S. aureus ATCC 1761 (MRSA), S. aureus ATCC 1766 (MRSA), S. aureus ATCC 1768 (MRSA), S. epidermidis ATCC 35984, E. coli ATCC 25922, K. pneumoniae ATCC 13883, P. mirabilis ATCC 25933, S. enterica ATCC 14028 and P. aeruginosa ATCC 10145 strains were used in this study. Bacteria were initially inoculated onto tryptone soy agar with 5% defibrinated sheep blood (Thermo Fisher Scientific, Inc., Waltham, MA, USA) and incubated at 37° C. for 24 hours. Then, single colonies of each strain were transferred to tryptone soy broth (Thermo Fisher Scientific) for the nuclease activity assay or antimicrobial susceptibility testing, respectively.
(§2) Antimicrobial susceptibility testing. Minimal inhibitory concentrations (MIC) of all nucleoside analogues and TOUCANs against each bacteria strain were determined using broth microdilution method. A single colony obtained from overnight culture on tryptone soy agar with 5% defibrinated sheep blood was inoculated in cation-adjusted Mueller Hinton Broth and adjusted to 10^6 CFU/mL. TOUCANs were prepared in PBS+/+ (treatment) and serial dilutions were made in 96-well polystyrene round bottom microwell plates with 50 μL final volume for each concentration. PBS+/+ was used as untreated control. Next, 50 μL bacteria solutions were added to each well to a final bacteria concentration of 5×10^5 CFU/mL. Plates were incubated at 37° C. in Cytation 1 Cell Imaging Multimode Reader. Growth curves were obtained by measuring optical densities at 600 nm every 10 minutes for 18 hours using Cytation 1 Cell Imaging Multimode Reader. In addition, visual inspection of the plates was carried out after 18 hours and photographs were taken. MICs were defined as the lowest drug concentration in the microwell at which bacterial growth was not visible at the end of the incubation period. Besides MIC determination, specificity of TOUCAN 7mGe was also shown with subcultures on chromogenic media. For this purpose, 5 μL of different concentrations of each strain were inoculated onto CHROM agar Orientation Media (Becton Dickinson) and the bacterial growth of each bacteria strain tested was observed by naked eye after incubation at 37° C. for 24 hours. Finally, photographs of the chromogenic media were taken.

[2] = test system: S. aureus ATCC 1717 (MRSA); test: Broth microdilution MIC and growth inhibition; format: cell-based, Staphylococcus aureus
Description: as §1, §2

[3] = test system: S. aureus ATCC 1747 (MRSA); test: Broth microdilution MIC and growth inhibition; format: cell-based, Staphylococcus aureus
Description: as §1, §2

[4] = test system: S. aureus ATCC 1761 (MRSA); test: Broth microdilution MIC and growth inhibition; format: cell-based, Staphylococcus aureus
Description: as §1, §2

[5] = test system: S. aureus ATCC 1766 (MRSA); test: Broth microdilution MIC and growth inhibition; format: cell-based, Staphylococcus aureus; details: S. aureus ATCC 1766 (MRSA)
Description: as §1, §2

[6] = test system: S. aureus ATCC 1768 (MRSA); test: Broth microdilution MIC and growth inhibition; format: cell-based, Staphylococcus aureus
Description: as §1, §2

[7] = test system: S. aureus ATCC 29213 (MSSA); test: Broth microdilution MIC and growth inhibition; format: cell-based, Staphylococcus aureus; details: S. aureus ATCC 29213 (MSSA)
Description: as §1, §2

[8] = test system: S. aureus ATCC 43300 (MRSA); test: Broth microdilution MIC and growth inhibition; format: cell-based, Staphylococcus aureus
Description: as §1, §2

[9] = test system: S. aureus NCTC 12493 (MRSA); test: Broth microdilution MIC and growth inhibition; format: cell-based, Staphylococcus aureus; details: for growth inhibition, dose response: NCTC-12493 (MRSA), FIG. 5a-b
Description: as §1, §2

[10] = test system: S. epidermidis ATCC 35984; test: Broth microdilution MIC and growth inhibition (control bacteria); format: cell-based, Staphylococcus epidermidis
Description: as §1, §2

E. coli ATCC 25922 = test: as above; format: cell-based, Escherichia coli
Description: as §1, §2

K. pneumoniae ATCC 13883 = test: as above; format: cell-based
Description: as §1, §2

P. aeruginosa ATCC 10145 = test: as above; format: cell-based
Description: as §1, §2

S. enterica ATCC 14028 = test: as above; format: cell-based
Description: as §1, §2

P. mirabilis ATCC 25933 = test: as above; format: cell-based, Proteus mirabilis
Description: as §1, §2

S. aureus [11] = test: Growth inhibition curves / MICs in S. aureus cultures (strain not named or summary over strains); format: cell-based, Staphylococcus aureus
Method: as §2

S. aureus [12] = test: Specificity study by visual inspection on chromogenic media, targeted bacteria; format: cell-based, Staphylococcus aureus; details: FIG. 1e
Method: as §2, with “For this purpose, 5 μL of different concentrations of each strain were inoculated onto CHROM agar Orientation Media (Becton Dickinson) and the bacterial growth of each bacteria strain tested was observed by naked eye after incubation at 37° C. for 24 hours. Finally, photographs of the chromogenic media were taken.” left out

[13] = test system: other pathogenic bacteria; test: Specificity study by visual inspection on chromogenic media, non-targeted control bacteria; format: cell-based; details: all concentrations tested, FIG. 1e
Method: as §2, with “For this purpose, 5 μL of different concentrations of each strain were inoculated onto CHROM agar Orientation Media (Becton Dickinson) and the bacterial growth of each bacteria strain tested was observed by naked eye after incubation at 37° C. for 24 hours. Finally, photographs of the chromogenic media were taken.” left out

[14] = test system: Pancreatic cancer cells (ASPC-1); test: Anti-cancer drug susceptibility testing, pancreatic cancer cells, 72 h; format: cell-based; details: 72 h cultures; Gemcitabine alone, TOUCAN 7mGe spiked with MN; FIG. 13
Method: (§3) Anti-cancer drug susceptibility testing for TOUCAN 7mGe. Gemcitabine and equivalent 7mGe solutions were prepared as explained before. Then, 7mGe was pre-exposed to 10 μl of 10 U MN for 1 hour at 37° C. (7mGe+MN). 100 μl of both drugs (Gemcitabine and 7mGe+MN) were added to the related wells and serially diluted using PBS+/+making the final concentrations between 100-2 μg/μl. Breast cancer cells (MDAMB231) and Pancreatic cancer cells (ASPC-1) were prepared as 10.000 cells/ml and 100 μl cell suspensions were added to each well. The plate was incubated at 37° C. for 72 hours. At 48th hour of incubation, 100 μl CyQUANT® Direct Cell Proliferation Assay kit was added to each well. Cell counts and images were taken at the end of 72 hours incubation period using Cytation 1 Cell Imaging Multi-Mode Reader.

[15] = test system: Breast cancer cells (MDAMB231); test: Anti-cancer drug susceptibility testing, breast cancer cells, 72 h; format: cell-based; details: 72 h of treatment; Gemcitabine alone, TOUCAN 7mGe spiked with MN; FIG. 14
Method: as §3

Q: What does the source list for mU-mU-mU-mU-T-T-Ge [TOUCAN 7mGe]?
A: MIC ([1]; 18 h, TOUCAN as NA equivalent): >40 µg/mL; TOUCAN % Growth inhibition ([1]; mean ± SD, n = 3): 61.5 ± 0.5%; MIC ([2]; 18 h, TOUCAN as NA equivalent): >40 µg/mL; TOUCAN % Growth inhibition ([2]; mean ± SD, n = 3): 72.9 ± 1.2%; MIC ([3]; 18 h, TOUCAN as NA equivalent): >40 µg/mL; TOUCAN % Growth inhibition ([3]; mean ± SD, n = 3): 44.9 ± 0.7%; TOUCAN MIC/NA MIC TOUCAN Efficacy Ratio (TER) [4]: 2500; MIC ([4]; 18 h, TOUCAN as NA equivalent): 40 µg/mL; TOUCAN % Growth inhibition ([4]; mean ± SD, n = 3): 90.1%; MIC ([5]; 18 h, TOUCAN as NA equivalent): >40 µg/mL; TOUCAN % Growth inhibition ([5]; mean ± SD, n = 3): 86.2 ± 0.9%; MIC ([6]; 18 h, TOUCAN as NA equivalent): >40 µg/mL; TOUCAN % Growth inhibition ([6]; mean ± SD, n = 3): 61.9 ± 1.1%; MIC ([7]; 18 h, TOUCAN as NA equivalent): >40 µg/mL; TOUCAN % Growth inhibition ([7]; mean ± SD, n = 3): 52.5 ± 1.1%; MIC ([8]; 18 h, TOUCAN as NA equivalent): >40 µg/mL; TOUCAN % Growth inhibition ([8]; mean ± SD, n = 3): 66.6 ± 1.6%; growth inhibition, dose response ([9]; 1.25 and 2.5 g/mL): partial effect; growth inhibition, dose response ([9]; concentrations from 5 to 40 μg/mL): 96%; TOUCAN MIC/NA MIC TOUCAN Efficacy Ratio (TER) ([9]; S. aureus NCTC 12493 (MRSA)): 1250; MIC ([9]; S. aureus NCTC 12493 (MRSA), 18 h, TOUCAN as NA equivalent): 5 µg/mL; TOUCAN % Growth inhibition ([9]; S. aureus NCTC 12493 (MRSA), mean ± SD, n = 3): 85.3%; associated toxicity to non-targeted bacteria ([10]; S. epidermidis (control), FIG. 1d): minimal associated toxicity; MIC ([10]; S. epidermidis ATCC 35984, 18 h, TOUCAN as NA equivalent): >40 µg/mL; TOUCAN % Growth inhibition ([10]; S. epidermidis ATCC 35984, mean ± SD, n = 3): 3.6 ± 2.0%; growth inhibition, dose response ([10]; S. epidermidis, all concentrations tested, FIG. 5): No growth inhibition; MIC (E. coli ATCC 25922; 18 h, TOUCAN as NA equivalent): >40 µg/mL; TOUCAN % Growth inhibition (E. coli ATCC 25922; mean ± SD, n = 3): 0 ± 0.00%; MIC (K. pneumoniae ATCC 13883; 18 h, TOUCAN as NA equivalent): >40 µg/mL; TOUCAN % Growth inhibition (K. pneumoniae ATCC 13883; mean ± SD, n = 3): 4.9 ± 3.1%; MIC (P. aeruginosa ATCC 10145; 18 h, TOUCAN as NA equivalent): >40 µg/mL; TOUCAN % Growth inhibition (P. aeruginosa ATCC 10145; mean ± SD, n = 3): 0 ± 0.00%; MIC (S. enterica ATCC 14028; 18 h, TOUCAN as NA equivalent): >40 µg/mL; TOUCAN % Growth inhibition (S. enterica ATCC 14028; mean ± SD, n = 3): 12.5 ± 5.7%; MIC (P. mirabilis ATCC 25933; 18 h, TOUCAN as NA equivalent): >40 µg/mL; TOUCAN % Growth inhibition (P. mirabilis ATCC 25933; mean ± SD, n = 3): 8.3 ± 0.6%; growth inhibition (S. aureus [11]; S. aureus (target), FIG. 1d): high growth inhibition; bacterial growth inhibition (S. aureus [11]; S. aureus cultures, optical density (OD) over 18 h, FIG. 1b): 96%; inhibition of bacterial growth (therapeutic efficacy) (S. aureus [11]; combinations of the R-S-D moieties, FIG. 1c): more than 99%; inhibition on chromogenic media (S. aureus [12]; 5 μg/mL): partially inhibited; inhibition on chromogenic media (S. aureus [12]; 10 and 20 μg/mL): completely inhibited; viability on chromogenic media [13]: remained viable; killing of pancreatic cancer cells (viability) [14]: efficient in killing; therapeutic effect in breast cancer cells (viability) [15]: slightly higher
